Assay results published in article PMC4767141, “Discovery of Potent, Orally Bioavailable, Small-Molecule Inhibitors of WNT Signaling from a Cell-Based Pathway Screen” (Journal of Medicinal Chemistry, 2015).

Assays:
[1] = target: T1, GSK3ALPHA (Homo sapiens, UniProt P49840); assay: Millipore kinase panel; assay type: biochemical; conditions: read-out: % Control
T1 construct: purchased Millipore

[2] = target: T2, LYN (Homo sapiens, UniProt P07948); assay: Millipore kinase panel; assay type: biochemical; conditions: ATP at Km, read-out: % Control
T2 construct: purchased Millipore KinaseProfiler (kinases); Cerep (receptors and ion channels)

[3] = Plasma stability; assay type: in vitro ADME
[4] = Clint determination; assay type: in vitro ADME; conditions: mouse, microsomes, pH 7.4, mouse microsomes, read-out: Clint (μL/min/mg) Mouse
[5] = target: T3, PI3 KINASE (P110B/P85B) (Mus musculus, UniProt Q8BTI9); assay: Millipore kinase panel; assay type: biochemical; conditions: read-out: % Control
T3 construct: purchased Millipore KinaseProfiler (kinases); Cerep (receptors and ion channels)

[6] = target: T4, ABL(T315I) (Homo sapiens, UniProt P00519, T315I); assay: Millipore kinase panel; assay type: biochemical; conditions: read-out: % Control
T4 construct: purchased Millipore KinaseProfiler (kinases); Cerep (receptors and ion channels)

[7] = target: T5, EGFR(L858R) (Homo sapiens, UniProt P00533, L858R); assay: Millipore kinase panel; assay type: biochemical; conditions: read-out: % Control
T5 construct: purchased Millipore KinaseProfiler (kinases); Cerep (receptors and ion channels)

[8] = target: CYP450 2C9 (Homo sapiens, UniProt P11712); assay: CYP450 inhibition; assay type: in vitro ADME
[9] = target: T6, PKBGAMMA (Homo sapiens, UniProt Q9Y243); assay: Millipore kinase panel; assay type: biochemical; conditions: read-out: % Control
T6 construct: purchased Millipore KinaseProfiler (kinases); Cerep (receptors and ion channels)

[10] = target: T7, PI3K BETA (Homo sapiens, UniProt P42338); assay: Millipore kinase panel; assay type: biochemical; conditions: read-out: % Control
T7 construct: purchased Millipore KinaseProfiler (kinases); Cerep (receptors and ion channels)

[11] = target: T8, PKCDELTA (Homo sapiens, UniProt Q05655); assay: Millipore kinase panel; assay type: biochemical; conditions: read-out: % Control
T8 construct: purchased Millipore KinaseProfiler (kinases); Cerep (receptors and ion channels)

[12] = target: T9, AURKC (Homo sapiens, UniProt Q9UQB9); assay: Millipore kinase panel; assay type: biochemical; conditions: read-out: % Control
T9 construct: purchased Millipore KinaseProfiler (kinases); Cerep (receptors and ion channels)

[13] = test system: TCF1 or TCF4; assay: Endogenous TCF1 and TCF4 levels in COLO205-F1756 clone 4; assay type: cell-based, human; conditions: COLO205-F1756 clone 4, 350 nM
Excerpt: Supplementary Figure S2. Levels of TCF1 and TCF4 in response to treatment of COLO205-
F1756 clone 4 (an APC-mutant human colorectal cancer cell line engineered to express a
(1 picture or pasted object on this page, not shown here)

[14] = target: T10, CK1DELTA (Homo sapiens, UniProt P48730); assay: Millipore kinase panel; assay type: biochemical; conditions: read-out: % Control
T10 construct: purchased Millipore KinaseProfiler (kinases); Cerep (receptors and ion channels)

[15] = target: T11, CDK5/P35 (Homo sapiens, UniProt Q00535); assay: Millipore kinase panel; assay type: biochemical; conditions: read-out: % Control
T11 construct: purchased Millipore KinaseProfiler (kinases); Cerep (receptors and ion channels)

[16] = target: T12, ABL (Q252H) (Homo sapiens, UniProt P00519, Q252H); assay: Millipore kinase panel; assay type: biochemical; conditions: read-out: % Control
T12 construct: purchased Millipore KinaseProfiler (kinases); Cerep (receptors and ion channels)

[17] = target: T13, TAO2 (Homo sapiens, UniProt Q9UL54); assay: Millipore kinase panel; assay type: biochemical; conditions: read-out: % Control
T13 construct: purchased Millipore KinaseProfiler (kinases); Cerep (receptors and ion channels)

[18] = target: T14, CDK1/CYCLINB (Homo sapiens, UniProt P06493); assay: Millipore kinase panel; assay type: biochemical; conditions: read-out: % Control
T14 construct: purchased Millipore KinaseProfiler (kinases); Cerep (receptors and ion channels)

T8 sequence (Q05655 whole entry): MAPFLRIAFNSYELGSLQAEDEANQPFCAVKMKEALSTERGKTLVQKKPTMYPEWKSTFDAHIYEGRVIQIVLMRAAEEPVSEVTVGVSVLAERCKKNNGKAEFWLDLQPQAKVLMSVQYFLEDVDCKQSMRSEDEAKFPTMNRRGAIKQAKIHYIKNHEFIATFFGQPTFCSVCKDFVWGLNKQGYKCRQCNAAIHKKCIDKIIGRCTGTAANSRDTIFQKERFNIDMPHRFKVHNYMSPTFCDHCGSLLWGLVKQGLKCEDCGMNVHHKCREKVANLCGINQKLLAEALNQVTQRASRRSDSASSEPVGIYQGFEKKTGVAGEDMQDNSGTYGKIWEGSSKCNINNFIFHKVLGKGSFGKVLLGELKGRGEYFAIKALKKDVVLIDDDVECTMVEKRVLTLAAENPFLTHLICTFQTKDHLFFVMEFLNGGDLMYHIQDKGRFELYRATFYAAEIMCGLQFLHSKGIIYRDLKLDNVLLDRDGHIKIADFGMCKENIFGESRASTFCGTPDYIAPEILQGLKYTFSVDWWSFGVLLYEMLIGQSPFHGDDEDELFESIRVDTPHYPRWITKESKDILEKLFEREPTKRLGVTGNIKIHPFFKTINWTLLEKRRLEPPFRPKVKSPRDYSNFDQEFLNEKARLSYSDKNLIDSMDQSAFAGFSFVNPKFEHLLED
T6 sequence (Q9Y243 whole entry): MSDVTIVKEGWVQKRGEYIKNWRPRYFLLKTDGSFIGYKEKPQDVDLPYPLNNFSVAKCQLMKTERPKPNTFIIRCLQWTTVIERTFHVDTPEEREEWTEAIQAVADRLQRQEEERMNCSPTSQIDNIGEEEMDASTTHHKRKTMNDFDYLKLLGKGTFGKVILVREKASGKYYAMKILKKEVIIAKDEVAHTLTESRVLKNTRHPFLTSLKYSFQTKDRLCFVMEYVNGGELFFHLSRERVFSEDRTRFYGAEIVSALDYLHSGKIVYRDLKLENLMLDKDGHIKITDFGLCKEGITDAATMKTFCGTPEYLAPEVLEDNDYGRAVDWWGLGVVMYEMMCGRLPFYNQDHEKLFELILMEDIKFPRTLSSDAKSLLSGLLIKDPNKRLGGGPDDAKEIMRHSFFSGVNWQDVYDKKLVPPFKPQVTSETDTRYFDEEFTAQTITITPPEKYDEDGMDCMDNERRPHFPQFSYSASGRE
T5 sequence (P00533 25-1210 L858R): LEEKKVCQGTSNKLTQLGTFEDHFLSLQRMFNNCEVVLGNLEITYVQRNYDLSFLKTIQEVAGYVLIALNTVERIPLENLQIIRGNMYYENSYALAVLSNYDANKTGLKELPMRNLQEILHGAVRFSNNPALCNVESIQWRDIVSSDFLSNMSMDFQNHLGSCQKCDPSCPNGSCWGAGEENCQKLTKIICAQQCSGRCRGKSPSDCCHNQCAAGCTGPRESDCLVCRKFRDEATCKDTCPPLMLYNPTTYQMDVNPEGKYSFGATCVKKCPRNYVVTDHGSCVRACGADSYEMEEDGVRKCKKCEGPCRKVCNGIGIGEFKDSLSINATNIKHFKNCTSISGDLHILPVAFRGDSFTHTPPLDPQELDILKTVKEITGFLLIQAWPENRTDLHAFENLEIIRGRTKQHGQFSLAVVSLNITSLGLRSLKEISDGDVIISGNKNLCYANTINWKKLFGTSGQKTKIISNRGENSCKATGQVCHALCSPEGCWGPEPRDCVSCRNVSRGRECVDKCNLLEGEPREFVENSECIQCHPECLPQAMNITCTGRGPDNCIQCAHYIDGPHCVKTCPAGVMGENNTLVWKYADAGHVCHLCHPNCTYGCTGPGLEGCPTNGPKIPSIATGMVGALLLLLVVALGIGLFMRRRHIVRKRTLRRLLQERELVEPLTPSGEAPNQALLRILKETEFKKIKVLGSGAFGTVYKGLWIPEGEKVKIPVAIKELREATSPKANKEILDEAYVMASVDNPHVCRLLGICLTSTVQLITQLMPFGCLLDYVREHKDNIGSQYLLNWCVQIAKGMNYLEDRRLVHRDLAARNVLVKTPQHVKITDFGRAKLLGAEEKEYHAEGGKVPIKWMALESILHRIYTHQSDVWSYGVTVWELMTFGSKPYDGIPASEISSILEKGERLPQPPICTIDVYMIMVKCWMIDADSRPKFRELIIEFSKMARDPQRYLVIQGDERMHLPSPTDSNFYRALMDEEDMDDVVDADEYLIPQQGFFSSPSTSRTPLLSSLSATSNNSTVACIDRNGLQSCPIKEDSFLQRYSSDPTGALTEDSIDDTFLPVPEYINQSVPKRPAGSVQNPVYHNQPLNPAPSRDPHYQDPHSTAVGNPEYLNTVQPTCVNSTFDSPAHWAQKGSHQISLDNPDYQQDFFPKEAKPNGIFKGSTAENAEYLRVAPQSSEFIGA
T10 sequence (P48730 whole entry): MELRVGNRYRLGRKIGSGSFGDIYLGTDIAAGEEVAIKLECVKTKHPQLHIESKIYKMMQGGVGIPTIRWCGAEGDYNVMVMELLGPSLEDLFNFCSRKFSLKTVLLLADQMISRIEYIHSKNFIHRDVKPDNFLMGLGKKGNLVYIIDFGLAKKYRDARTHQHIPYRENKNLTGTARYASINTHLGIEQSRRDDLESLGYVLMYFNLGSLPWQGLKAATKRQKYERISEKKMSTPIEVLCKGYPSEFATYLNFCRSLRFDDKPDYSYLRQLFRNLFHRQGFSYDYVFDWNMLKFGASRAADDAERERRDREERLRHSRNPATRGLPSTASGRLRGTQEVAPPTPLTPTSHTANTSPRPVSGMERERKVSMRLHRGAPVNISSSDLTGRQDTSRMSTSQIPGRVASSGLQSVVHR
T7 sequence (P42338 whole entry): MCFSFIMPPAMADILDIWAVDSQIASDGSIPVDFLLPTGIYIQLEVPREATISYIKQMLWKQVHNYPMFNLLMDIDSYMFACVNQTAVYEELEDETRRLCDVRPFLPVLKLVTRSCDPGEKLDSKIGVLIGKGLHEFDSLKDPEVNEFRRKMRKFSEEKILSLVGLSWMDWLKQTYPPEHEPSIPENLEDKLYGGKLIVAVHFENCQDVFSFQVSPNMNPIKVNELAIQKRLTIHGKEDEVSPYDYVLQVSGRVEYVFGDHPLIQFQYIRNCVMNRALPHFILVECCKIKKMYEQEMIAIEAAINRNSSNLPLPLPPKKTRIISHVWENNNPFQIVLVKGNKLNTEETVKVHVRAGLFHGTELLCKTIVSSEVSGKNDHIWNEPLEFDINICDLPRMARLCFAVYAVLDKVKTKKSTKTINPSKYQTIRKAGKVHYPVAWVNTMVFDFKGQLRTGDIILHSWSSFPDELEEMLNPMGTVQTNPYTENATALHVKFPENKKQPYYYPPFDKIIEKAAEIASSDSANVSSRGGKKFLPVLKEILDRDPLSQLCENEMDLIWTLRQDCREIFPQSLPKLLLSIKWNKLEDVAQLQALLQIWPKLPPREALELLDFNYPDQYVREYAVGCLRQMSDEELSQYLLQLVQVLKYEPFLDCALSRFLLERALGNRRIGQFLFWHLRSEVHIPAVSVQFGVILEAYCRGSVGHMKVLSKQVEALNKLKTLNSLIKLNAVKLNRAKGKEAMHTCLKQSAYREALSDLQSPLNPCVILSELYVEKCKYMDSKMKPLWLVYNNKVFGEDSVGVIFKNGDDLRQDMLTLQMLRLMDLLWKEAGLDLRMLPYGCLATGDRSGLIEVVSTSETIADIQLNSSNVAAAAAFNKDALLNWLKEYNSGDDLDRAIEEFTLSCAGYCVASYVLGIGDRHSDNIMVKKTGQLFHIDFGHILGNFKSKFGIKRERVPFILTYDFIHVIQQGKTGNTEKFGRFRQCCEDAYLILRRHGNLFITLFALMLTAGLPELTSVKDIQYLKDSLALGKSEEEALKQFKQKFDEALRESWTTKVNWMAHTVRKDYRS
T7 sequence (P27986 whole entry partner): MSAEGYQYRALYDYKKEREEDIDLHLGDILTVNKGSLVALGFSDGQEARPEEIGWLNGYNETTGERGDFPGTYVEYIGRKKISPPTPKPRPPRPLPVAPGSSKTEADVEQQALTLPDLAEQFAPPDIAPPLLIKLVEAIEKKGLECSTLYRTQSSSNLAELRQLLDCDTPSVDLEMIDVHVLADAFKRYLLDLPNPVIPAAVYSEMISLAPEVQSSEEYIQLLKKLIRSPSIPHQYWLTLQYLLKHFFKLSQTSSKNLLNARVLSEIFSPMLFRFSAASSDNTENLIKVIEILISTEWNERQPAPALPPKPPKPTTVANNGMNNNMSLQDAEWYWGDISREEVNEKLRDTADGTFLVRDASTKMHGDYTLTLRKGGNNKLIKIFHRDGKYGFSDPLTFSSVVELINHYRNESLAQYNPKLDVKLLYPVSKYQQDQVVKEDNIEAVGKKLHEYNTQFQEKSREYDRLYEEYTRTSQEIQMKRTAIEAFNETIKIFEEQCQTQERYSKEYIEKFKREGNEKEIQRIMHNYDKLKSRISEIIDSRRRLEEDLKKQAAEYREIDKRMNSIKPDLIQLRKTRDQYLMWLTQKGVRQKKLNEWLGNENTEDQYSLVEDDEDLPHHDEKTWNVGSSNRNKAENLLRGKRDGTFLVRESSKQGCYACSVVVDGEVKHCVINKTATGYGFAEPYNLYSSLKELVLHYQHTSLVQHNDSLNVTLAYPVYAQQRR
T1 sequence (P49840 whole entry): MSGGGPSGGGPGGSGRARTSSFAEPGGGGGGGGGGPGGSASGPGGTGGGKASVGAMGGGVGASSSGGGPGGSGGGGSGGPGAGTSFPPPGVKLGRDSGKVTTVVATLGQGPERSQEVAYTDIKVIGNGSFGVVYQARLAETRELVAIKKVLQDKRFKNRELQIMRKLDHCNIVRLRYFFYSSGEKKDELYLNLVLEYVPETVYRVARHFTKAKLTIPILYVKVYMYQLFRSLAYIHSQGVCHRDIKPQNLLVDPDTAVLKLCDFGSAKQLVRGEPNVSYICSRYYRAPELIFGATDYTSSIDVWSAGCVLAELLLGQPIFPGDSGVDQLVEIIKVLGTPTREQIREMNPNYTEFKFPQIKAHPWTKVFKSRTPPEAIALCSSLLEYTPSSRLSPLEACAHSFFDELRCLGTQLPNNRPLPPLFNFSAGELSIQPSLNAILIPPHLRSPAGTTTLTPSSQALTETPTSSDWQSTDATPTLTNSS

SMILES | remaining activity at 1 µM [1] [%] | remaining activity at 1 µM [2] [%] | plasma instability [3] | microsomal CLint at 1 μM [4] [µL/min/mg] | remaining activity at 1 µM [5] [%] | remaining activity at 1 µM [6] [%] | remaining activity at 1 µM [7] [%] | IC50 [8] [µM] | remaining activity at 1 µM [9] [%] | remaining activity at 1 µM [10] [%] | remaining activity at 1 µM [11] [%] | remaining activity at 1 µM [12] [%] | effect on endogenous levels of TCF1 or TCF4 [13] | remaining activity at 1 µM [14] [%] | remaining activity at 1 µM [15] [%] | remaining activity at 1 µM [16] [%] | remaining activity at 1 µM [17] [%] | remaining activity at 1 µM [18] [%]
O=C1NCCC12CCN(c1c(Cl)cncc1-c1ccc(N3CCOCC3)cc1)CC2 [Compound 44, 8-(3-Chloro-5-(4-morpholin-4-ylphenyl)pyridin-4-yl)-2,8-diazaspiro[4.5]decan-1-one] | -39 | 31 | no plasma instability was observed | 290 |  |  |  |  |  |  |  |  |  |  |  |  |  | 
Cn1cc(-c2ccc(-c3cncc(Cl)c3N3CCC4(CCNC4=O)CC3)cc2)cn1 [Compound 74, 8-(3-Chloro-5-(4-(1-methyl-1H-pyrazol-4-yl)phenyl)pyridin-4-yl)-2,8-diazaspiro[4.5]decan-1-one] |  |  |  |  | -1 | 7 | 1 | 4.2 | -5 | 0 | -37 | -10 | did not affect endogenous levels of TCF1 or TCF4 | 5 | -16 | -1 | -15 | -9
